Literature values in paper PMC7395068, “The evolution of strategies to minimise the risk of human drug-induced liver injury (DILI) in drug discovery and development” (Archives of Toxicology, 2020).
Like-named read-outs stand apart in the source and are kept apart here.

Experiments:
[1] = test system: PHH spheroids; details: In vitro Assay; ref Vorrink 2018; cited from earlier work
[2] = cited from earlier work
[3] = test system: isolated mouse liver mitochondria; details: In vitro Assay; ref Porceddu 2012; cited from earlier work
[4] = test system: HepG2 cells; details: cited from earlier work
[5] = test system: HepG2 cells; details: In vitro Assay; ref Persson 2013; cited from earlier work
[6] = test system: human hepatocytes; details: In vitro Assay; ref Xu 2008; cited from earlier work
[7] = test system: primary human hepatocytes, NIH3T3 fibroblasts, BSEP, CYP3A4; details: cited from earlier work
[8] = test system: THLE-Null and THLE-3A4 cells; details: In vitro Assay; ref Gustafsson 2014; cited from earlier work
[9] = cited from earlier work; remark: listed apart in the source
[10] = test system: rBsep; details: In vitro Assay; ref Dawson 2012; cited from earlier work
[11] = test system: THLE or HepG2 cells, isolated mitochondria, BSEP; details: In vitro Assay; ref Aleo 2019; cited from earlier work
[12] = In vitro Assay, ref O'Brien 2006
[13] = In vitro Assay, ref Schadt 2015

| SMILES | hLiMTs ATP <20 x Cmax [1] | In vivo DILI ([2]; ref Vorrink 2018) | Structural based (HCI) [6] | In vivo DILI ([2]; ref Xu 2008) | DILI +VE (5-8), DILI -VE (-4) ([9]; ref Chen 2016) | DILI severity category ([9]; ref Chen 2016) | other results |
| --- | --- | --- | --- | --- | --- | --- | --- |
| O=c1ccc2ccccc2o1 [coumarin] | +VE (IC20 < 20 × Cmax.tot cut-off) | +VE |  |  |  |  | In vivo DILI ([2]; […]): +VE; In vivo DILI ([2]; ref Porceddu 2012): +VE; in vitro data EC2<=1x Cmax [3]: +VE; in vitro data EC20<=2uM [3]: +VE |
| CN(C)C(=O)Oc1cc(OC(=O)N(C)C)cc(C(O)CNC(C)(C)C)c1 (stereo not drawn) [bambuterol] | -VE | -VE | -VE | -VE |  |  | Structural based (HCI) [4, 12]: +VE; Cluser analysis [5]: -VE; Structural based (HCI) [5]: -VE; In vivo DILI ([2]; ref O'Brien 2006): -VE; In vivo DILI ([2]; ref Persson 2013): -VE |
| Cc1nc2n(c(=O)c1CCN1CCC(c3noc4cc(F)ccc34)CC1)CCCC2 [risperidone] | -VE | +VE | -VE | +VE |  |  | Cluser analysis [5]: +VE; Structural based (HCI) [5]: -VE; In vivo DILI ([2]; ref Persson 2013): +VE |
| Cc1ccc(Nc2c(F)cccc2Cl)c(CC(=O)O)c1 [lumiracoxib] |  |  |  |  |  |  | Cellular toxicity (3T3 cells) [7, 13]: -VE; Combined Assay [7, 13]: +VE; GSH adduct HML [7, 13]: +VE; Hepatocyte cellular toxicity [7, 13]: -VE; MitoTox 3T3 [7, 13]: -VE; TDI CYP3A4 [7, 13]: -VE; hBSEP inhibition [7, 13]: -VE; THLE-Null [8]: +VE; in vitro data EC2<=1x Cmax [3]: +VE |
| Cn1nnc2c(C(N)=O)ncn2c1=O [temozolomide] | -VE | -VE | -VE | -VE | +VE | vLess-DILI-Concern | Structural based (HCI) [4, 12]: +VE (lowest HCI endpoint IC50 (or in the absence of dose–response < 100 µM) < 30 × total human plasma exposure levels (Cmax.tot)); In vivo DILI ([2]; ref O'Brien 2006): -VE |
| Cc1cc2c(s1)Nc1ccccc1N=C2N1CCN(C)CC1 [olanzapine] |  |  |  |  |  |  | In vivo DILI ([2]; […]): -VE; In vivo DILI ([2]; ref Gustafsson 2014): +VE; In vivo DILI ([2]; ref Schadt 2015): -VE; In vivo DILI ([2]; ref Williams 2019): +VE; THLE-Null [8]: -VE |
| CCN1CCCC1CNC(=O)c1cc(S(N)(=O)=O)ccc1OC (stereo not drawn) [sulpiride] |  |  |  |  |  |  | In vivo DILI ([2]; in vivo): +VE; THLE-Null [8]: -VE; Inhibition of rBsep cutoff<1& cmax u>.2 [10]: -VE; Inhibition of rBsep cutoff<3 [10]: -VE |
| C[C@]12CCC(=O)C=C1CC[C@@H]1[C@@H]2[C@@H](O)C[C@@]2(C)[C@H]1CC[C@]2(O)C(=O)CO [hydrocortisone] | -VE |  | -VE |  |  |  | DILI +VE (5-8), DILI -VE (-4) ([9]; in vivo): -VE; DILI severity category ([9]; in vivo): vNo-DILI-Concern; In vivo DILI ([2]; in vivo): -VE |
| Nc1ccc(/N=N/c2ccccc2)c(N)n1 [phenazopyridine] | -VE | +VE | -VE | +VE |  |  | Partition Hybrid HRM Score [11]: +VE; Ro2 Hybrid HRM Score [11]: -VE; In vivo DILI ([2]; ref Aleo 2019): -VE |
| NNCCc1ccccc1 [phenelzine] | -VE | -VE | -VE | -VE | +VE | vLess-DILI-Concern | In vivo DILI ([2]; […]): +VE |
| COc1cc(NC(C)CCCN)c2ncccc2c1 (stereo not drawn) [primaquine] | -VE | -VE | -VE | -VE | -VE | vNo-DILI-Concern | hBSEP inhibition [7]: -VE; Structural based (HCI) [4, 12]: +VE; Partition Hybrid HRM Score [11]: -VE; Ro2 Hybrid HRM Score [11]: -VE; In vivo DILI ([2]; ref Aleo 2019): -VE; In vivo DILI ([2]; ref O'Brien 2006): -VE; In vivo DILI ([2]; ref Schadt 2015): -VE |
| CC(C)OC(=O)C(C)(C)Oc1ccc(C(=O)c2ccc(Cl)cc2)cc1 [fenofibrate] | +VE (IC20 < 20 × Cmax.tot cut-off) |  | -VE |  |  |  | Cluser analysis [5]: -VE; Partition Hybrid HRM Score [11]: +VE; Ro2 Hybrid HRM Score [11]: +VE |
| COC1=CC(=O)C[C@@H](C)[C@]12Oc1c(Cl)c(OC)cc(OC)c1C2=O [griseofulvin] | -VE |  | -VE |  |  |  | Partition Hybrid HRM Score [11]: +VE; Ro2 Hybrid HRM Score [11]: +VE |
| CC(CCc1ccc(O)cc1)NCCc1ccc(O)c(O)c1 (stereo not drawn) [dobutamine] | -VE | -VE | -VE | -VE | -VE | vNo-DILI-Concern |  |
| Clc1ccc2c(c1)C(N1CCNCC1)=Nc1ccccc1O2 [amoxapine] | -VE | -VE | -VE | -VE | -VE | Ambiguous DILI-concern |  |
| CC[C@@H]1C(=O)OC[C@@H]1Cc1cncn1C [pilocarpine] | -VE | -VE | -VE | -VE | -VE | Ambiguous DILI-concern |  |
| C[C@H](CCC(=O)O)[C@H]1CC[C@H]2[C@@H]3[C@H](O)C[C@@H]4C[C@H](O)CC[C@]4(C)[C@H]3CC[C@]12C [chenodiol] | +VE (IC20 < 20 × Cmax.tot cut-off) | +VE | +VE | +VE | -VE | Ambiguous DILI-concern |  |
| C=C[C@H]1C[N@@]2CC[C@H]1C[C@@H]2[C@@H](O)c1ccnc2ccc(OC)cc12 [quinidine] | +VE (IC20 < 20 × Cmax.tot cut-off) |  |  |  |  |  | DILI +VE (5-8), DILI -VE (-4) ([9]; in vivo): +VE; DILI severity category ([9]; in vivo): vLess-DILI-Concern; Cellular toxicity (3T3 cells) [7]: +VE; GSH adduct HML [7]: -VE; TDI CYP3A4 [7]: -VE; hBSEP inhibition [7]: -VE; Structural based (HCI) [4]: +VE |
| COC(=O)C1=C(C)NC(C)=C(C(=O)OCC(C)C)C1c1ccccc1[N+](=O)[O-] (stereo not drawn) [nisoldipine] | -VE | -VE | -VE | -VE | -VE | Ambiguous DILI-concern | In vivo DILI ([2]; […]): -VE |
| NS(=O)(=O)c1cc(C(=O)O)c(NCc2ccco2)cc1Cl [furosemide, reference compound] |  |  |  |  |  |  | Structural based (HCI) [4, 12]: -VE; Cluser analysis [5]: -VE; Structural based (HCI) [5]: -VE; THLE-Null [8]: -VE |
| Nc1cc(-c2ccncc2)c[nH]c1=O [amrinone] | -VE | +VE | -VE | +VE | -VE | Ambiguous DILI-concern |  |
| CCOC(=O)[C@H](CCc1ccccc1)N[C@@H](C)C(=O)N1Cc2ccccc2C[C@H]1C(=O)O [quinapril] | -VE | +VE | -VE | +VE | +VE | vLess-DILI-Concern |  |
